These results are taken from patent US12509467B2 (Hoffmann-La Roche Inc., priority 2020, dated 2025).

Molecules are shown by their SMILES.

T1 sequence (Q8N884 161-522): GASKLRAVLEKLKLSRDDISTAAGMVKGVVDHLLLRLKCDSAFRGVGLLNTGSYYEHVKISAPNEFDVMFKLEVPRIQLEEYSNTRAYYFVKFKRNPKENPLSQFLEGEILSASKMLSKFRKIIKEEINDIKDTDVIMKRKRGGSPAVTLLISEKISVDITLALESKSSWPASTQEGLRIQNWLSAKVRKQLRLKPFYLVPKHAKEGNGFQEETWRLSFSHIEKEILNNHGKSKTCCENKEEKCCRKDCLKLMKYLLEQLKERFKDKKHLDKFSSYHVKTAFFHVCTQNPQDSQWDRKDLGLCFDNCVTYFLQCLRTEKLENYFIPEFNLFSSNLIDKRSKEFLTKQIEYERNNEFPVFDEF

One assay concerns the target T1, human cGAS (residues 161-522) (Homo sapiens, UniProt Q8N884).
T1 construct: Recombinantly expressed purified human cGAS (residues 161-522) was used at 25 nM; made in house
Kind of assay: cGAS Activity Assay—Malachite Green. The assay is classed as biochemical.
Details: not given
How it is done:
Compounds were tested for cGAS inhibition in a coupled enzymatic assay based on Phosphate detection by Malachite Green. Final assay conditions were 20 mM TRIS pH 7.5 (Applichem), 5 mM MgCl2 (Sigma) and 0.01% BSA (Sigma) supplemented with 80 μM ATP (Sigma), 80 μM GTP (Sigma) and 100 nM Interferon Stimulating DNA (ISD) (Microsynth).
1 μL of DMSO dilution series was transferred to 32.3 μL reaction buffer, mixed by pipetting up/down, spun for 1 minute at 3000 rpm and was visually inspected for precipitation. 5 μL of 3-fold enzyme stock solution were transferred to an empty 384-well Black/Clear Flat Bottom Polystyrene NBS (Corning) rows 3-24. Rows 1-2 were filled with assay buffer. Plates were spun 10 seconds at 1000 rpm (164×g). 5 μL of compound intermediate dilution was added and mixed by pipetting up/down to rows 3-24. Rows 1-2 were filled with 3.1% DMSO assay buffer. Plates were spun 10 seconds at 1000 rpm (164×g). 5 μL 3-fold Nucleotide/DNA mix was added to all wells to start the reaction. Plates were spun 10 seconds at 1000 rpm (164×g) and incubated for 4 hour at room temperature (RT) in the dark. 5 μL 4 U/mL PPase (Sigma) were added to all wells. Plates spun 10 seconds at 1000 rpm (164×g). 10 μL BioMol green Solution (Enzo Life Sciences) was added to all wells. Plates spun 10 seconds at 1000 rpm (164×g) and incubated 30 minutes at RT in the dark. Absorbance data was collected 620 nm on an EnVision Multilable Reader (Perkin Elmer) and the following measurement settings were used: excitation filter photometric was 620 nm; excitation from the top; measurement height was 1 mm; number of flashes was 30; number of flashes integrated was 1.
All plates are checked for abnormalities and outliers in the Blank Control (no protein, row 1) and the Neutral Control (no compound, row 2) are excluded using the 3*SD rule.
Table 5 provides IC50 values (μM) for cGAS inhibition obtained for particular examples of the present invention as measured by the above-described assay.
Regarding `CCCc1cc(=O)n2nc(NCc3cc(-n4cncc4C)ccc3Cl)nc2[nH]1` [Example 87, 2-[[2-chloro-5-(5-methylimidazol-1-yl)phenyl]methylamino]-5-propyl-4H-[1,2,4]triazolo[1,5-a]pyrimidin-7-one], the IC50 came to 640 nM.

`CC(C)Cc1cc(=O)n2nc(NCc3ccc(Cl)cc3Cl)nc2[nH]1` [Example 64, 2-[(2,4-dichlorophenyl)methyl-amino]-5-isobutyl-4H-[1,2,4]-triazolo[1,5-a]pyrimidin-7-one] returned an IC50 of 3330 nM.

`CCCc1cc(=O)n2nc(NCc3cc(-c4ccn(C)n4)ccc3C)nc2[nH]1` [Example 83, 2-[[2-methyl-5-(1-methyl-pyrazol-3-yl)phenyl]methyl-amino]-5-propyl-4H-[1,2,4]-triazolo[1,5-a]pyrimidin-7-one] returned an IC50 of 1240 nM.

Regarding `O=c1cc(CCCC(F)F)[nH]c2nc(NCc3ccc(Cl)cc3Cl)nn12` [Example 52, 2-[(2,4-dichlorophenyl)methyl-amino]-5-(4,4-difluorobutyl)-4H-[1,2,4]triazolo[1,5-a]-pyrimidin-7-one], the IC50 was 3280 nM.

`Cn1ccc(-c2ccc(Cl)c(CNc3nc4[nH]c(CCc5ccccc5)cc(=O)n4n3)c2)n1` [Example 26, 2-[[2-chloro-5-(1-methylpyrazol-3-yl)phenyl]methylamino]-5-(2-phenylethyl)-4H-[1,2,4]-triazolo[1,5-a]pyrimidin-7-one] displayed an IC50 of 1600 nM.

The compound `O=c1nc(CCc2ccccc2)[nH]c2nc(NCc3ccc(Cl)cc3Cl)nn12` [Example 101, 2-[(2,4-Dichlorophenyl)methylamino]-5-(2-phenylethyl)-4H-[1,2,4]triazolo[1,5-a][1,3,5]-triazin-7-one] yielded an IC50 of 7790 nM.

The compound `CCCc1cc(=O)n2nc(NCc3ccc(OCc4ccccc4)cc3Cl)nc2[nH]1` [Example 15] registered an IC50 of 4000 nM.

In the case of `CCCc1cc(=O)n2nc(NCc3ccc(OCc4ccccc4)cc3)nc2[nH]1` [Example 17, 2-[(4-benzyloxyphenyl)methyl-amino]-5-propyl-4H-[1,2,4]-triazolo[1,5-a]pyrimidin-7-one], the IC50 worked out at 4080 nM.

Compound `CC(C)c1ccc(CNc2nc3[nH]c(Cc4ccccc4)cc(=O)n3n2)cc1` [Example 73, 5-benzyl-2-[(4-isopropylphen-yl)methylamino]-4H-[1,2,4]-triazolo[1,5-a]pyrimidin-7-one] came in with an IC50 of 2700 nM.

Take `CCCc1cc(=O)n2nc(NCc3cc(-c4ccccn4)ccc3Cl)nc2[nH]1` [Example 29, 2-[[2-chloro-5-(2-pyridyl)phen-yl]methylamino]-5-propyl-4H-[1,2,4]triazolo[1,5-a]pyrimidin-7-one]: the IC50 was 668 nM.

Still in this assay, the particulars now being: cGAS inhibition; 25 nM cGAS, 80 μM ATP, 80 μM GTP, 100 nM ISD, 4 hour at RT, Malachite Green phosphate detection; read-out: IC50 cGAS.
Regarding `CCCc1cc(=O)n2nc(NCc3ccc(N4CCOCC4)cc3Cl)nc2[nH]1` [Example 41, 2-[(2-chloro-4-morpholino-phenyl)methylamino]-5-propyl-4H-[1,2,4]triazolo[1,5-a]-pyrimidin-7-one], the IC50 came to 701 nM.

As for `CCc1cc(=O)n2nc(NCc3cc(-c4ccn(C)n4)ccc3Cl)nc2[nH]1` [Example 33, 2-[[2-chloro-5-(1-methylpyrazol-3-yl)phenyl]methylamino]-5-ethyl-4H-[1,2,4]triazolo[1,5-a]pyrimidin-7-one], the IC50 is 816 nM.

Turning to `COCCc1cc(=O)n2nc(NCc3cc(-c4ccn(C)n4)ccc3Cl)nc2[nH]1` [Example 51, 2-[[2-chloro-5-(1-methylpyrazol-3-yl)phenyl]methylamino]-5-(2-methoxyethyl)-4H-[1,2,4]-triazolo[1,5-a]pyrimidin-7-one], the half-maximal inhibitory concentration (IC50) is 491 nM.

As for `O=c1cc(C(F)(F)F)[nH]c2nc(NCc3ccc(Cl)cc3Cl)nn12` [Example 60, 2-[(2,4-dichlorophenyl)methyl-amino]-5-(trifluoromethyl)-4H-[1,2,4]triazolo[1,5-a]-pyrimidin-7-one], the IC50 was determined as 1250 nM.

In the case of `O=c1cc(Cc2ccccc2)[nH]c2nc(NCc3ccc(Cl)cc3Cl)nn12` [Example 71, 5-benzyl-2-[(2,4-dichlorophen-yl)methylamino]-4H-[1,2,4]-triazolo[1,5-a]pyrimidin-7-one], the IC50 was found to be 1760 nM.

Take `CCCc1cc(=O)n2nc(NCc3nc4ccccc4o3)nc2[nH]1` [Example 74, 2-(1,3-benzoxazol-2-ylmethyl-amino)-5-propyl-4H-[1,2,4]-triazolo[1,5-a]pyrimidin-7-one]: the IC50 is 4560 nM.

Consider `O=c1cc(CC(F)(F)F)[nH]c2nc(NCc3ccc(Cl)cc3Cl)nn12` [Example 68, 2-[(2,4-dichlorophenyl)meth-ylamino]-5-(2,2,2-trifluoro-ethyl)-4H-[1,2,4]triazolo[1,5-a]pyrimidin-7-one], for which the half-inhibitory concentration (IC50) stood at 4440 nM.

Turning to `CCCc1cc(=O)n2nc(NCc3ccc(OC(C)C)cc3)nc2[nH]1` [Example 53, 2-[(4-propan-2-yloxyphenyl)-methylamino]-5-propyl-4H-[1,2,4]triazolo[1,5-a]pyrimidin-7-one], the IC50 was found to be 2660 nM.

Regarding `CCCc1cc(=O)n2nc(NCc3cc(N4CCOCC4)ccc3Cl)nc2[nH]1` [Example 39, 2-[(2-chloro-5-morpholinophen-yl)methylamino]-5-propyl-4H-[1,2,4]triazolo[1,5-a]pyrimidin-7-one], the IC50 was found to be 1040 nM.

For the compound `CCCCc1cc(=O)n2nc(NCc3cc(-c4ccncn4)ccc3Cl)nc2[nH]1` [Example 86, 5-Butyl-2-[(2-chloro-5-pyrimidin-4-yl-phenyl)methylamino]-4H-[1,2,4]triazolo [1,5-a]pyrimidin-7-one], the IC50 is 79 nM.

Take `CCCc1cc(=O)n2nc(NCc3cc(-c4ccn(C)n4)ccc3C(F)(F)F)nc2[nH]1` [Example 81, 2-[[5-(1-Methylpyrazol-3-yl)-2-(trifluoromethyl)phenyl]methylamino]-5-propyl-4H-[1,2,4]-triazolo[1,5-a]pyrimidin-7-one]: the IC50 was found to be 1690 nM.

In the case of `CCCc1cc(=O)n2nc(NCc3cc(-c4ccn(C)n4)ccc3OC)nc2[nH]1` [Example 28, 2-[[2-methoxy-5-(1-methyl-pyrazol-3-yl)phenyl]methyl-amino]-5-propyl-4H-[1,2,4]-triazolo[1,5-a]pyrimidin-7-one], the IC50 was 1910 nM.

As for `CCCc1cc(=O)n2nc(NCc3ccc(OC4CC4)cc3)nc2[nH]1` [Example 10, 2-[[4-(cyclopropoxy)phenyl]-methylamino]-5-propyl-4H-[1,2,4]triazolo[1,5-a]pyrimidin-7-one], the IC50 came to 4080 nM.

Regarding `Cn1ccc(-c2ccc(Cl)c(CNc3nc4[nH]c(C(F)(F)F)cc(=O)n4n3)c2)n1` [Example 19, 2-[[2-chloro-5-(1-methylpyrazol-3-yl)phenyl]methylamino]-5-(trifluoromethyl)-4H-[1,2,4]-triazolo[1,5-a]pyrimidin-7-one], the IC50 stood at 663 nM.

Turning to `CCCc1cc(=O)n2nc(NCc3cc(-n4cnc(C)c4)ccc3Cl)nc2[nH]1` [Example 88, 2-[[2-Chloro-5-(4-methylimidazol-1-yl)phenyl]methylamino]-5-propyl-4H-[1,24]triazolo[1,5-a]pyrimidin-7-one], the IC50 came to 484 nM.

On to `Cn1ccc(-c2ccc(Cl)c(CNc3nc4[nH]c(Cc5ccccc5)cc(=O)n4n3)c2)n1` [Example 27], for which the IC50 came to 178 nM.

As to `O=c1cc(CC2CC2)[nH]c2nc(NCc3ccc(Cl)cc3Cl)nn12` [Example 63, 5-(cyclopropylmethyl)-2-[(2,4-dichlorophenyl)methylamino]-4H-[1,2,4]triazolo[1,5-a]-pyrimidin-7-one], the IC50 is 3590 nM.

As for `CCCc1cc(=O)n2nc(NCc3cnc(N4CCOCC4)cc3Cl)nc2[nH]1` [Example 99, 2-[(4-Chloro-6-morpholino-3-pyridyl)methylamino]-5-propyl-4H-[1,2,4]triazolo[1,5-a]pyrimidin-7-one], the IC50 was determined as 2190 nM.

`COCCCc1cc(=O)n2nc(NCc3cc(-c4ccn(C)n4)ccc3Cl)nc2[nH]1` [Example 48, 2-[[2-chloro-5-(1-methylpyrazol-3-yl)phenyl]methylamino]-5-(3-methoxypropyl)-4H-[1,2,4]-triazolo[1,5-a]pyrimidin-7-one]: the IC50 amounted to 603 nM.

As to `CCCc1cc(=O)n2nc(NCc3cc(-c4ccn(C)n4)ccc3F)nc2[nH]1` [Example 12, 2-[[2-fluoro-5-(1-methylpyrazol-3-yl)phenyl]methylamino]-5-propyl-4H-[1,2,4]triazolo[1,5-a]pyrimidin-7-one], the IC50 amounted to 602 nM.

On to `CCCc1cc(=O)n2nc(NCc3cc(Nc4nccs4)ccc3Cl)nc2[nH]1` [Example 89, 2-[[2-chloro-5-(thiazol-2-ylamino)phenyl]methylamino]-5-propyl-4H-[1,2,4]triazolo[1,5-a]pyrimidin-7-one], for which the IC50 was 492 nM.

The term IC50 denotes the concentration that inhibits the measured activity by half.
